The values below come from ChEMBL document CHEMBL1149443, “Synthesis of the novel series of bispyridinium compounds bearing (E)-but-2-ene linker and evaluation of their reactivation activity against chlorpyrifos-inhibited acetylcholinesterase” (Bioorg Med Chem Lett, 2006).

The term inhibition denotes how much of the control response was suppressed. Read a high inhibition as a strong effect.

The experiment has as its target T1, Acetylcholinesterase (Rattus norvegicus) (UniProt P37136).
T1 sequence (whole entry): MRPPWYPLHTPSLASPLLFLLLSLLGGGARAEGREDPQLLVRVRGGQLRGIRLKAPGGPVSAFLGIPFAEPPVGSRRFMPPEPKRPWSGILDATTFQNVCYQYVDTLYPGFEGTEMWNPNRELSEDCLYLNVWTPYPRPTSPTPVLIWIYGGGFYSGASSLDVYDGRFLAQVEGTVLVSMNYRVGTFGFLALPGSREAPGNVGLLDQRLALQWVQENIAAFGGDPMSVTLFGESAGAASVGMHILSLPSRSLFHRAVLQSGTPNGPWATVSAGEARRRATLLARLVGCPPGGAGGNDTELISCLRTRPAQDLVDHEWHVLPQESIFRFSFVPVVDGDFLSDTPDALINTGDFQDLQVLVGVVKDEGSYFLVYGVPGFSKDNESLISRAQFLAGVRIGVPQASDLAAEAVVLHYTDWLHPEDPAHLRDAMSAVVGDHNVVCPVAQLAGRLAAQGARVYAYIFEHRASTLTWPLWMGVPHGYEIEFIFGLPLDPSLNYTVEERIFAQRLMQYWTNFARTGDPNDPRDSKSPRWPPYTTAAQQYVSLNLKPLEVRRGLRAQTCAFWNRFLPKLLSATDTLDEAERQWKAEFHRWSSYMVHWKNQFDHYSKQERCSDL
Briefly: Inhibitory activity against AChE from rat brain homogenate. The format is functional. The settings on record: concentration not given here.

`CCOP(=S)(OCC)Oc1nc(Cl)c(Cl)cc1Cl`: the inhibition stood at 95%.
